In article PMC8296573, “Synthesis and Biological Evaluation of Fingolimod Derivatives as Antibacterial Agents” (ACS Omega, 2021):
≈ marks a conversion by molar mass, not a printed value. Read-outs that look alike come from different tables or passages of the source.

Legend:
S. aureus ATCC 25923 [1] = test: Antibacterial activity, pre-exposure (planktonic cells and biofilm formation); assay type: cell-based, Staphylococcus aureus; details: for MIC / inhibition at 5 µM / inhibition at 10 µM / inhibition at 15 µM / inhibition at 25 µM: Staphylococcus aureus, ATCC25923; for inhibition at 5 µM / inhibition at 10 µM / inhibition at 15 µM / inhibition at 25 µM / Average inhibition %, biofilms viability / Average inhibition %, planktonic cells viability: pre-exposure, ± SD
Procedure, shortened: (§1)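 Bacteria and compound were co-incubated from the start for 18 h at 37 °C, 220 rpm. Planktonic cells scored by turbidity plus resazurin reduction; washed biofilms scored by 20 μM resazurin (30, 60, 90 min for S. aureus, A. baumannii, P. aeruginosa) and ethanol-fixed crystal violet staining.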

S. aureus ATCC 25923 [2] = test: Antibacterial activity, post-exposure on preformed 18-h-old biofilms; assay type: cell-based, Staphylococcus aureus; details: ± SD; for inhibition at 25 µM / inhibition at 50 µM / inhibition at 100 µM / inhibition at 200 µM: Staphylococcus aureus; for inhibition at 25 µM: ATCC25923, 25 µM; for inhibition at 50 µM: ATCC25923, 50 µM; for inhibition at 100 µM: ATCC25923, 100 µM; for inhibition at 200 µM: ATCC25923, 200 µM
Procedure, shortened: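 Compounds were applied to preformed 18-h biofilms after medium change and left 24 h. Read-outs: planktonic OD plus resazurin fluorescence (20 μM), biofilm metabolic activity by resazurin 30 min at 37 °C, then biomass by crystal violet absorbance at 595 nm after ethanol fixation.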

S. aureus ATCC 12598 = test: Antibacterial activity, pre-exposure; assay type: cell-based, Staphylococcus aureus; details: S. aureus ATCC 12598, pre-exposure, ± SD; for inhibition at 5 µM / inhibition at 10 µM / inhibition at 15 µM / inhibition at 25 µM: Staphylococcus aureus, ATCC12598
Procedure, shortened: as §1

A. baumannii NCTC 13423 = test: Antibacterial activity, pre-exposure; assay type: cell-based, Acinetobacter baumannii; details: for Average inhibition %, biofilms viability / Average inhibition %, planktonic cells viability / inhibition at 10 µM / inhibition at 15 µM / inhibition at 25 µM / inhibition at 50 µM: A. baumannii NCTC 13423, pre-exposure, ± SD; for inhibition at 10 µM / inhibition at 15 µM / inhibition at 25 µM / inhibition at 50 µM: Acinetobacter baumannii, NCTC13423
Procedure, shortened: as §1

P. aeruginosa ATCC 9027 = test: Antibacterial activity, pre-exposure; assay type: cell-based, Pseudomonas aeruginosa; details: for Average inhibition %, biofilms viability / Average inhibition %, planktonic cells viability / inhibition at 50 µM / inhibition at 100 µM / inhibition at 150 µM / inhibition at 200 µM: P. aeruginosa ATCC 9027, pre-exposure, ± SD; for inhibition at 50 µM / inhibition at 100 µM / inhibition at 150 µM / inhibition at 200 µM: Pseudomonas aeruginosa, ATCC9027
Procedure, shortened: as §1

[3] = 5 µM, read-out: Average inhibition %, biofilms biomass
[4] = 5 µM, read-out: Average inhibition %, planktonic cells turbidity
[5] = 10 µM, read-out: Average inhibition %, biofilms biomass
[6] = 10 µM, read-out: Average inhibition %, planktonic cells turbidity
[7] = 15 µM, read-out: Average inhibition %, biofilms biomass
[8] = 15 µM, read-out: Average inhibition %, planktonic cells turbidity
[9] = 25 µM, read-out: Average inhibition %, biofilms biomass
[10] = 25 µM, read-out: Average inhibition %, planktonic cells turbidity
[11] = read-out: Average inhibition %, biofilms biomass
[12] = read-out: Average inhibition %, planktonic cells turbidity
[13] = 50 µM, read-out: Average inhibition %, biofilms biomass
[14] = 50 µM, read-out: Average inhibition %, planktonic cells turbidity

Work on `CCCCCCCCCCc1ccc2nc(CCC(N)(CO)CO)ccc2c1` [Compound 81, 2-Amino-2-[2-(6-decylquinolin-2-yl)ethyl]propane-1,3-diol] yielded an MIC (S. aureus ATCC 25923 [1]; lowest concentration with no visible growth (>90% inhibition of turbidity and viability of planktonic cells), 18 h, read-out: MIC S. aureus ATCC 25923) of 10 to 15 µM (≈ 3.87 to 5.8 µg/mL), an inhibition at 5 µM (S. aureus ATCC 25923 [1]; [3]) of 28.1 ± 33.9% and an inhibition at 5 µM (S. aureus ATCC 25923 [1]; [4]) of 33.4 ± 30.9%. For the same molecule, the inhibition at 10 µM (S. aureus ATCC 25923 [1]; [5]) was 66 ± 27.6%, the inhibition at 10 µM (S. aureus ATCC 25923 [1]; [6]) was 57.3 ± 36.4% and the inhibition at 15 µM (S. aureus ATCC 25923 [1]; [7]) was 98.4 ± 0.3%. It also gave an inhibition at 15 µM (S. aureus ATCC 25923 [1]; [8]) of 99.3 ± 0.2%, an inhibition at 25 µM (S. aureus ATCC 25923 [1]; [9]) of 97.3 ± 0.1% and an inhibition at 25 µM (S. aureus ATCC 25923 [1]; [10]) of 98.6 ± 0.3%. For the same molecule, the MIC (S. aureus ATCC 25923 [1]; read-out: MIC (S. aureus)) was 10 to 15 µM (≈ 3.87 to 5.8 µg/mL), the “Average inhibition %, biofilms viability” value (S. aureus ATCC 25923 [1]; 5 µM) was 28.3 ± 16.5% and the “Average inhibition %, planktonic cells viability” value (S. aureus ATCC 25923 [1]; 5 µM) was 23.5 ± 26.1%. The “Average inhibition %, biofilms viability” value (S. aureus ATCC 25923 [1]; 10 µM) was 64 ± 29.7%, the “Average inhibition %, planktonic cells viability” value (S. aureus ATCC 25923 [1]; 10 µM) was 33.9 ± 57% and the “Average inhibition %, biofilms viability” value (S. aureus ATCC 25923 [1]; 15 µM) was 99.1 ± 1%. For the same molecule, the “Average inhibition %, planktonic cells viability” value (S. aureus ATCC 25923 [1]; 15 µM) was 99.7 ± 0%, the “Average inhibition %, biofilms viability” value (S. aureus ATCC 25923 [1]; 25 µM) was 99.1 ± 1.4% and the “Average inhibition %, planktonic cells viability” value (S. aureus ATCC 25923 [1]; 25 µM) was 99.7 ± 0.1%. For the same molecule, the “Average inhibition %, biofilms viability” value (S. aureus ATCC 25923 [2]; 25 µM) was 6.4 ± 8.2%, the “Average inhibition %, planktonic cells viability” value (S. aureus ATCC 25923 [2]; 25 µM) was 8.8 ± 7.7% and the “Average inhibition %, biofilms viability” value (S. aureus ATCC 25923 [2]; 50 µM) was 18.3 ± 16.6%. For the same molecule, the “Average inhibition %, planktonic cells viability” value (S. aureus ATCC 25923 [2]; 50 µM) was 6.9 ± 10.4%, the “Average inhibition %, biofilms viability” value (S. aureus ATCC 25923 [2]; 100 µM) was 20.9 ± 18.1% and the “Average inhibition %, planktonic cells viability” value (S. aureus ATCC 25923 [2]; 100 µM) was 28.8 ± 17.2%. The “Average inhibition %, biofilms viability” value (S. aureus ATCC 25923 [2]; 200 µM) was 20.1 ± 16%, the “Average inhibition %, planktonic cells viability” value (S. aureus ATCC 25923 [2]; 200 µM) was 7.8 ± 11.1% and the inhibition at 25 µM (S. aureus ATCC 25923 [2]; [11]) was 9.7 ± 8.6%. For the same molecule, the inhibition at 25 µM (S. aureus ATCC 25923 [2]; [12]) was 22.7 ± 32.9%, the inhibition at 50 µM (S. aureus ATCC 25923 [2]; [11]) was 28.5 ± 12.5% and the inhibition at 50 µM (S. aureus ATCC 25923 [2]; [12]) was 10 ± 17.4%. For the same molecule, the inhibition at 100 µM (S. aureus ATCC 25923 [2]; [11]) was 34.6 ± 8.2%, the inhibition at 100 µM (S. aureus ATCC 25923 [2]; [12]) was 19 ± 22.4% and the inhibition at 200 µM (S. aureus ATCC 25923 [2]; [11]) was 25 ± 11.6%. The inhibition at 200 µM (S. aureus ATCC 25923 [2]; [12]) was 11.2 ± 16.9%, the “Average inhibition %, biofilms viability” value (S. aureus ATCC 12598; 5 µM) was 15.6 ± 9.7% and the “Average inhibition %, planktonic cells viability” value (S. aureus ATCC 12598; 5 µM) was 4.2 ± 7.3%. For the same molecule, the “Average inhibition %, biofilms viability” value (S. aureus ATCC 12598; 10 µM) was 99.4 ± 0%, the “Average inhibition %, planktonic cells viability” value (S. aureus ATCC 12598; 10 µM) was 99.7 ± 0% and the “Average inhibition %, biofilms viability” value (S. aureus ATCC 12598; 15 µM) was 99.7 ± 0.1%. For the same molecule, the “Average inhibition %, planktonic cells viability” value (S. aureus ATCC 12598; 15 µM) was 99.8 ± 0.1%, the “Average inhibition %, biofilms viability” value (S. aureus ATCC 12598; 25 µM) was 99.7 ± 0.1% and the “Average inhibition %, planktonic cells viability” value (S. aureus ATCC 12598; 25 µM) was 99.6 ± 0.1%. It also gave an inhibition at 5 µM (S. aureus ATCC 12598; [3]) of 19.1 ± 26.4%, an inhibition at 5 µM (S. aureus ATCC 12598; [4]) of 2.1 ± 3.7% and an inhibition at 10 µM (S. aureus ATCC 12598; [5]) of 96 ± 0.6%. The inhibition at 10 µM (S. aureus ATCC 12598; [6]) was 99.8 ± 0.1%, the inhibition at 15 µM (S. aureus ATCC 12598; [7]) was 93.5 ± 1.8% and the inhibition at 15 µM (S. aureus ATCC 12598; [8]) was 99.7 ± 0.1%. The inhibition at 25 µM (S. aureus ATCC 12598; [9]) was 88.7 ± 2%, the inhibition at 25 µM (S. aureus ATCC 12598; [10]) was 99.3 ± 0.2% and the “Average inhibition %, biofilms viability” value (A. baumannii NCTC 13423; 10 µM) was 0 ± 0%. For the same molecule, the “Average inhibition %, planktonic cells viability” value (A. baumannii NCTC 13423; 10 µM) was 7.5 ± 7.6%, the “Average inhibition %, biofilms viability” value (A. baumannii NCTC 13423; 15 µM) was 0 ± 0% and the “Average inhibition %, planktonic cells viability” value (A. baumannii NCTC 13423; 15 µM) was 5.8 ± 6.2%. For the same molecule, the “Average inhibition %, biofilms viability” value (A. baumannii NCTC 13423; 25 µM) was 0 ± 0%, the “Average inhibition %, planktonic cells viability” value (A. baumannii NCTC 13423; 25 µM) was 2.6 ± 2.1% and the “Average inhibition %, biofilms viability” value (A. baumannii NCTC 13423; 50 µM) was 0.8 ± 1.4%. For the same molecule, the “Average inhibition %, planktonic cells viability” value (A. baumannii NCTC 13423; 50 µM) was 2.6 ± 3.8%, the inhibition at 10 µM (A. baumannii NCTC 13423; [5]) was 0% and the inhibition at 10 µM (A. baumannii NCTC 13423; [6]) was 0.2 ± 0.5%. The inhibition at 15 µM (A. baumannii NCTC 13423; [7]) was 2.1 ± 3.6%, the inhibition at 15 µM (A. baumannii NCTC 13423; [8]) was 0% and the inhibition at 25 µM (A. baumannii NCTC 13423; [9]) was 3.6 ± 6.2%. It also gave an inhibition at 25 µM (A. baumannii NCTC 13423; [10]) of 0%, an inhibition at 50 µM (A. baumannii NCTC 13423; [13]) of 5.6 ± 5.9% and an inhibition at 50 µM (A. baumannii NCTC 13423; [14]) of 0.5 ± 0.9%. The “MIC A. baumannii NCTC 13423” value (A. baumannii NCTC 13423; pre-exposure, Inactive = no activity up to 50 μM, > = some inhibition but no MIC reached) was “Inactive”, the “Average inhibition %, biofilms viability” value (P. aeruginosa ATCC 9027; 50 µM) was 4.9 ± 5.2% and the “Average inhibition %, planktonic cells viability” value (P. aeruginosa ATCC 9027; 50 µM) was 10.9 ± 9.5%. The “Average inhibition %, biofilms viability” value (P. aeruginosa ATCC 9027; 100 µM) was 3.8 ± 4.9%, the “Average inhibition %, planktonic cells viability” value (P. aeruginosa ATCC 9027; 100 µM) was 20.3 ± 12.9% and the “Average inhibition %, biofilms viability” value (P. aeruginosa ATCC 9027; 150 µM) was 7.9 ± 11.7%. For the same molecule, the “Average inhibition %, planktonic cells viability” value (P. aeruginosa ATCC 9027; 150 µM) was 16.3 ± 5.7%, the “Average inhibition %, biofilms viability” value (P. aeruginosa ATCC 9027; 200 µM) was 0.3 ± 0.5% and the “Average inhibition %, planktonic cells viability” value (P. aeruginosa ATCC 9027; 200 µM) was 17 ± 16.2%. The inhibition at 50 µM (P. aeruginosa ATCC 9027; [13]) was 3.6 ± 4.6%, the inhibition at 50 µM (P. aeruginosa ATCC 9027; [14]) was 29.2 ± 5.8% and the inhibition at 100 µM (P. aeruginosa ATCC 9027; 100 µM, read-out: Average inhibition %, biofilms biomass) was 0%. It also gave an inhibition at 100 µM (P. aeruginosa ATCC 9027; 100 µM, read-out: Average inhibition %, planktonic cells turbidity) of 41.2 ± 11.2%, an inhibition at 150 µM (P. aeruginosa ATCC 9027; 150 µM, read-out: Average inhibition %, biofilms biomass) of 4 ± 7% and an inhibition at 150 µM (P. aeruginosa ATCC 9027; 150 µM, read-out: Average inhibition %, planktonic cells turbidity) of 38.2 ± 12.2%. The inhibition at 200 µM (P. aeruginosa ATCC 9027; 200 µM, read-out: Average inhibition %, biofilms biomass) was 0.7 ± 0.6%, the inhibition at 200 µM (P. aeruginosa ATCC 9027; 200 µM, read-out: Average inhibition %, planktonic cells turbidity) was 30.5 ± 8.3% and the “MIC P. aeruginosa ATCC 9027” value (P. aeruginosa ATCC 9027; pre-exposure, Inactive = no activity up to 200 μM, > = some inhibition but no MIC reached) was “Inactive”.
